Measurements: PMC7329800, “Reduction of the serotonin 5-HT1B and 5-HT2A receptor-mediated contraction of human pulmonary artery by the combined 5-HT1B receptor antagonist and serotonin transporter inhibitor LY393558” (Pharmacological Reports, 2020)
Where “and” joins values, the source holds several entries; their conditions need not be identical. Equal entries are not always repeated. Where two headings read alike, the source gives them in different places.

Legend:
human pulmonary arteries [1] = system: human pulmonary arteries; parameters: method as in PMID 19541711; settings: hPAs, other studies; cited from earlier work
human pulmonary arteries [2] = assay: Contraction of isolated human pulmonary arteries by agonists alone (organ bath, cumulative concentration-response curves); type: cell-based; settings: for EC50 / Emax: Homo sapiens
Method: (§1) Lung tissue was received from 29 men and 5 women (mean age 65 ± 2 years) with lung carcinoma (without PAH) undergoing lobectomy or pneumonectomy. Before the operation, they received cephalosporins and heparin as anti-infection and antithrombotic prophylaxis, respectively. Isolation of hPAs has been described previously. When necessary, endothelium was disrupted by rubbing of the lumen with horse hair. Arterial rings (3–5 mm in length and 2–4 mm in outer diameter) were mounted in 10 ml organ baths containing Tyrode’s solution [17] gassed with 95% O2 and 5% CO2 (37 °C, pH 7.4). Resting tension ranged from 19.6 to 24.5 mN (equivalent to transmural pressure of ~ 16 mmHg). Muscle tension was recorded by a force displacement transducer (BIO-SYS-TECH). After equilibration, rings were exposed to high KCl (60 mM) Tyrode’s solution (equimolar substitution of NaCl by KCl) to check tissue viability and maximum contraction and to phenylephrine (1 µM) followed by acetylcholine (10 µM) to verify if the endothelium is intact. […]. Concentrations of antagonists and citalopram were taken from previous studies. In each preparation, only one experimental curve was determined.
(§2) Results are given as mean ± SEM from n patients. Contractile responses were shown as percentages of the response to KCl 60 mM. GraphPad Prism 5.0 software was used to plot the mean data as sigmoidal CRCs. CRCs were used to determine potency (pEC50) and maximal effect (Emax) of agonists.

human pulmonary arteries [3] = assay: Influence of antagonists/inhibitors on 5-HT-induced vasoconstriction of isolated human pulmonary arteries; type: cell-based; settings: for rightward shift of the CRC for 5-HT (factor): ketanserin 0.1 µM, SB224289 0.2 µM, GR55562 1 µM
Method: as §1, §2

5-HT2AR = target: T1, 5-HT2AR (Homo sapiens, UniProt P28223); assay: Influence of antagonists on α-methyl-5-HT-induced vasoconstriction of isolated human pulmonary arteries; type: cell-based; settings: for Tension (contractile response to α-methyl-5-HT in absolute terms): α-methyl-5-HT in presence of ketanserin 0.01 μM or LY393558 0.1 μM, control α-methyl-5-HT (DMSO)
T1 construct: Arterial rings (3–5 mm in length and 2–4 mm in outer diameter) were mounted in 10 ml organ baths; from tissue; host or cells: human pulmonary artery rings from lung tissue removed at lobectomy or pneumonectomy
Method: (§3) Lung tissue was received from 29 men and 5 women (mean age 65 ± 2 years) with lung carcinoma (without PAH) undergoing lobectomy or pneumonectomy. Before the operation, they received cephalosporins and heparin as anti-infection and antithrombotic prophylaxis, respectively. Isolation of hPAs has been described previously. When necessary, endothelium was disrupted by rubbing of the lumen with horse hair. […] Muscle tension was recorded by a force displacement transducer (BIO-SYS-TECH). After equilibration, rings were exposed to high KCl (60 mM) Tyrode’s solution (equimolar substitution of NaCl by KCl) to check tissue viability and maximum contraction and to phenylephrine (1 µM) followed by acetylcholine (10 µM) to verify if the endothelium is intact. […] Concentrations of antagonists and citalopram were taken from previous studies. In each preparation, only one experimental curve was determined.
as §2

5-HT2ARs = target: 5-HT2ARs; parameters: method as in PMID 11734182; settings: read-out: pKi at 5-HT2ARs (converted); cited from earlier work
α1-adrenoceptor = assay: Influence of LY393558 on phenylephrine-induced vasoconstriction of isolated human pulmonary arteries; type: cell-based
Method: as §1
(§4) Results are given as mean ± SEM from n patients. Contractile responses were shown as percentages of the response to KCl 60 mM. GraphPad Prism 5.0 software was used to plot the mean data as sigmoidal CRCs. […]

[4] = target: T2, thromboxane A2 (TP) receptor (Homo sapiens, UniProt P21731); assay: Influence of LY393558 on U46619-induced vasoconstriction of isolated human pulmonary arteries; type: cell-based
T2 construct: Arterial rings (3–5 mm in length and 2–4 mm in outer diameter) were mounted in 10 ml organ baths; from tissue; host or cells: human pulmonary artery rings from lung tissue removed at lobectomy or pneumonectomy
T2 sequence (P21731 1-343): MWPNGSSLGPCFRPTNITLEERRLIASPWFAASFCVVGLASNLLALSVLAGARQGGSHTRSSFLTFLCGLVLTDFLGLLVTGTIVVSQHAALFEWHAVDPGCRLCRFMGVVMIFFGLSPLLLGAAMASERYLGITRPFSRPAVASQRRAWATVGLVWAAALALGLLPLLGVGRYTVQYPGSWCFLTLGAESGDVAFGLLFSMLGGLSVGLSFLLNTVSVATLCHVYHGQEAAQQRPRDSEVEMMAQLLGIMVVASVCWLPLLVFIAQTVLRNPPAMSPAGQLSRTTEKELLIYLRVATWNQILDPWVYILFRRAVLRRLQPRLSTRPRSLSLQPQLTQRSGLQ
Method: as §1, §4

5-HT1B/1DR = target: T3, 5-HT1B/1DR (Homo sapiens, UniProt P28222); assay: Influence of antagonists on 5-CT-induced vasoconstriction of isolated human pulmonary arteries; type: cell-based; settings: 5-CT in presence of SB224289 0.2 μM, GR55562 1 μM or LY393558 0.1 μM; control 5-CT (DMSO)
T3 construct: Arterial rings (3–5 mm in length and 2–4 mm in outer diameter) were mounted in 10 ml organ baths; from tissue; host or cells: human pulmonary artery rings from lung tissue removed at lobectomy or pneumonectomy
Method: as §3, with “(BIO-SYS-TECH).” for “(BIO-SYS-TECH). After equilibration, rings were exposed to high KCl (60 mM) Tyrode’s solution (equimolar substitution of NaCl by KCl) to check tissue viability and maximum contraction and to phenylephrine (1 µM) followed by acetylcholine (10 µM) to verify if the endothelium is intact.”
as §2

SERT = settings: cited from earlier work
[5] = agonist alone, DMSO vehicle control, endothelium-intact hPAs
[6] = 5-HT in presence of: citalopram 1 μM, SB224289 0.2 μM, GR55562 1 μM, ketanserin 0.1 μM or combinations, 45 min incubation, endothelium-intact
[7] = SB224289 0.2 μM, GR55562 1 μM, ketanserin 0.1 μM, endothelium-intact
[8] = agonist alone (control of LY393558 experiment, Fig. 3), endothelium-intact hPAs
[9] = agonist alone, endothelium removed (-ENDO)
[10] = agonist alone, endothelium-intact hPAs

T1 sequence (P28223 whole entry): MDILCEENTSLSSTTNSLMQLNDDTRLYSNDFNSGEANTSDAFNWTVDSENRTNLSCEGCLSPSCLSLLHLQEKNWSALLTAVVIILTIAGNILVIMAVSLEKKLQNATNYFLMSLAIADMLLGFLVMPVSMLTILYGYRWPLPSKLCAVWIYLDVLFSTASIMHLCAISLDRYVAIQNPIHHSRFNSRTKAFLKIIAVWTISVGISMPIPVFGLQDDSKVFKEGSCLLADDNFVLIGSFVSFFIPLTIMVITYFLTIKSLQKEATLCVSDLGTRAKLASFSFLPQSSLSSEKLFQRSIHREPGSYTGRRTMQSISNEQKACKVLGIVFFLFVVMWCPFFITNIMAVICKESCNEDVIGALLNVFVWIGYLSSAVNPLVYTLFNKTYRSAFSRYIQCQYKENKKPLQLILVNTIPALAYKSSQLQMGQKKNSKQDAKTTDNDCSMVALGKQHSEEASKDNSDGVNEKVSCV
T3 sequence (P28222 whole entry): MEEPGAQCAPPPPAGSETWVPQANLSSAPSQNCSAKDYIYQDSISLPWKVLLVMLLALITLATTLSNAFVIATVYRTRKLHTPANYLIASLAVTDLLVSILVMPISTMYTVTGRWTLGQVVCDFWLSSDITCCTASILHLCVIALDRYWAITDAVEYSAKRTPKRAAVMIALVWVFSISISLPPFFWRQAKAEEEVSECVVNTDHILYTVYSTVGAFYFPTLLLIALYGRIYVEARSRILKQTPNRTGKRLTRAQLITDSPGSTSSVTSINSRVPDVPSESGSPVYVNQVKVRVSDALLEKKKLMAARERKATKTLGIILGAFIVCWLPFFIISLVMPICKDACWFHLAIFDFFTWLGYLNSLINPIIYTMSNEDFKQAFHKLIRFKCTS

NCCc1c[nH]c2ccc(C(N)=O)cc12 [5-CT, 5-carboxamidotryptamine]
efficiency less than that of 5-HT (human pulmonary arteries [1]): 50% | Emax (percentage of the response to 60 mM KCl) (human pulmonary arteries [2]; [5]): 73 ± 6% | Tension (contractile response in absolute terms) (human pulmonary arteries [2]; [5]): 8.0 ± 1.0 mN | pEC50 (human pulmonary arteries [2]; [5]): 6.36 ± 0.09 | efficacy lower than that of 5-HT (human pulmonary arteries [2]; hPAs, this study): 20%

CN(C)CCCC1(c2ccc(F)cc2)OCc2cc(C#N)ccc21 (stereo not drawn) [Citalopram]
Tension (contractile response to 5-HT in absolute terms) (human pulmonary arteries [3]; 5-HT + citalopram 1 μM, endothelium removed (-ENDO)): 7.6 ± 1.3 mN | Tension (contractile response to 5-HT in absolute terms) (human pulmonary arteries [3]; [6]): 8.9 ± 1.3 mN | influence on the potency of 5-HT (human pulmonary arteries [3]; citalopram 1 µM, endothelium-denuded preparations): enhanced the potency of 5-HT | influence on the CRC for 5-HT (human pulmonary arteries [3]; citalopram 1 µM, endothelium-intact hPAs): did not influence the CRC for 5-HT

CN(C)CCCc1cc(C(=O)Nc2ccc(-c3ccncc3)cc2)ccc1O [GR55562]
Tension (contractile response to 5-HT in absolute terms) (human pulmonary arteries [3]; [6]): 7.2 ± 2.0 mN | pA2 against 5-HT (human pulmonary arteries [3]; [7]): 6.6 and 6.63 | rightward shift of the CRC for 5-HT (factor) (human pulmonary arteries [3]): 5

CC(N)Cc1c[nH]c2ccc(O)cc12 (stereo not drawn) [α-Methyl-5-HT, α-methyl-5-HT]
Emax (percentage of the response to 60 mM KCl) (human pulmonary arteries [2]; [5]): 79 ± 5% | Tension (contractile response in absolute terms) (human pulmonary arteries [2]; [5]): 10.5 ± 1.0 mN | pEC50 (human pulmonary arteries [2]; [5]): 5.89 ± 0.08

O=C(c1ccc(F)cc1)C1CCN(CCn2c(=O)[nH]c3ccccc3c2=O)CC1 [Ketanserin, ketanserin]
Tension (contractile response to 5-HT in absolute terms) (human pulmonary arteries [3]; [6]): 7.7 ± 1.2 mN | pA2 against 5-HT (human pulmonary arteries [3]; [7]): 7.40 | pA2 against 5-HT (human pulmonary arteries [3]; SB224289 0.2 μM, GR55562 1 μM, ketanserin 0.1 μM, endothelium-intact, listed as ketanserin): 7.4 | rightward shift of the CRC for 5-HT (factor) (human pulmonary arteries [3]): 3 | vasoconstriction induced by α-methyl-5-HT diminished by (5-HT2AR; LY393558, ketanserin 0.01 µM (Discussion)): 30% | Tension (contractile response to α-methyl-5-HT in absolute terms) (5-HT2AR): 9.7 ± 2.3 mN

CNC[C@H](O)c1cccc(O)c1 [phenylephrine, (–)-phenylephrine]
EC50 (human pulmonary arteries [2]; [8]): 3160 nM | Emax (human pulmonary arteries [2]; agonist alone (control of LY393558 experiment, Fig. 3), endothelium-intact hPAs, read-out: Emax (relative to the KCl-induced response)): 68 ± 5%

NCCc1c[nH]c2ccc(O)cc12 [5-HT, serotonin]
EC50 (human pulmonary arteries [2]; [5]): 457 nM | EC50 (human pulmonary arteries [2]; [9]): 1700 nM | EC50 (human pulmonary arteries [2]; [10]): 631 nM | Emax (human pulmonary arteries [2]; read-out: Emax (percentage of the response to 60 mM KCl), agonist alone, DMSO vehicle control, endothelium-intact hPAs): 82 ± 4% | Emax (human pulmonary arteries [2]; read-out: Emax (percentage of the response to 60 mM KCl), agonist alone, endothelium removed (-ENDO)): 92 ± 4% | Emax (human pulmonary arteries [2]; read-out: Emax (percentage of the response to 60 mM KCl), agonist alone, endothelium-intact hPAs): 94 ± 4% | Tension (contractile response in absolute terms) (human pulmonary arteries [2]; [5]): 8.5 ± 1.8 mN | Tension (contractile response in absolute terms) (human pulmonary arteries [2]; [9]): 9.4 ± 1.2 mN | Tension (contractile response in absolute terms) (human pulmonary arteries [2]; [10]): 9.7 ± 1.0 mN

CC(C)N1Cc2cc(S(C)(=O)=O)ccc2N(CCN2CC=C(c3c[nH]c4cc(F)ccc34)CC2)S1(=O)=O [LY393558]
Tension (contractile response to 5-HT in absolute terms) (human pulmonary arteries [3]; 5-HT + LY393558 0.1 μM, control 5-HT (DMSO), endothelium-intact): 9.1 ± 1.7 mN | pA2 against 5-HT (human pulmonary arteries [3]; LY393558 0.1 μM, control 5-HT (DMSO), endothelium-intact): 8.3 and 8.25 | Ki (5-HT2ARs): ~100 nM | Tension (contractile response to α-methyl-5-HT in absolute terms) (5-HT2AR): 10.5 ± 2.4 mN | effect on the vasoconstrictory effects of phenylephrine (α1-adrenoceptor; LY393558 0.1 µM): did not modify | pA2 at human α1 receptors (α1-adrenoceptor; from lack of effect of 0.1 µM on phenylephrine response): < 7.0 | effect on the vasoconstrictory effects of U46619 ([4]; LY393558 0.1 µM): did not modify | pA2 at human TP receptors ([4]; from lack of effect of 0.1 µM on U46619 response): < 7.0 | Tension (contractile response to 5-CT in absolute terms) (5-HT1B/1DR): 7.3 ± 2.0 mN | Ki (SERT; read-out: Ki (SERT inhibition)): ~1 nM

CCCCC[C@H](O)/C=C/[C@@H]1[C@@H](C/C=C\CCCC(=O)O)[C@H]2CO[C@@H]1C2 [U46619]
Emax (relative to the KCl-induced response) (human pulmonary arteries [2]; [8]): 109 ± 6% | pEC50 (human pulmonary arteries [2]; [8]): 8.60 ± 0.10

Cc1nc(-c2ccc(-c3ccc(C(=O)N4CCc5cc6c(cc54)C4(CCN(C)CC4)CO6)cc3)c(C)c2)no1 [SB224289]
Tension (contractile response to 5-HT in absolute terms) (human pulmonary arteries [3]; [6]): 7.0 ± 1.9 mN | pA2 against 5-HT (human pulmonary arteries [3]; [7]): 7.0 and 7.02 | Tension (contractile response to 5-CT in absolute terms) (5-HT1B/1DR): 10.0 ± 3.3 mN | affinity for the SERT (SERT): has no affinity for the SERT
